ChEMBL document CHEMBL3991601, “The target landscape of clinical kinase drugs” (Science, 2017)
The source made the active and inactive calls. Cut-off read from the data, not from the text of the source, for most assays here: actives have a measured Kd and inactives only a lower limit.

Key:
[1] = target: T1, Ribosyldihydronicotinamide dehydrogenase [quinone] (Homo sapiens, UniProt P16083)
T1 sequence (P16083 whole entry): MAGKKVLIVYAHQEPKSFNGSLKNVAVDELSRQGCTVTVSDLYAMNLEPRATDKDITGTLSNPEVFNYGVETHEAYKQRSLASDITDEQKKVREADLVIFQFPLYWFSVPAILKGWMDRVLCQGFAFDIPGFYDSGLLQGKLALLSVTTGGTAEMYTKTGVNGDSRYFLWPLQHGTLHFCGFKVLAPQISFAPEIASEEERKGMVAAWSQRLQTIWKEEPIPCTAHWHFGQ

[2] = target: T2, Serine/threonine-protein kinase ULK1 (Homo sapiens, UniProt O75385)
T2 sequence (O75385 whole entry): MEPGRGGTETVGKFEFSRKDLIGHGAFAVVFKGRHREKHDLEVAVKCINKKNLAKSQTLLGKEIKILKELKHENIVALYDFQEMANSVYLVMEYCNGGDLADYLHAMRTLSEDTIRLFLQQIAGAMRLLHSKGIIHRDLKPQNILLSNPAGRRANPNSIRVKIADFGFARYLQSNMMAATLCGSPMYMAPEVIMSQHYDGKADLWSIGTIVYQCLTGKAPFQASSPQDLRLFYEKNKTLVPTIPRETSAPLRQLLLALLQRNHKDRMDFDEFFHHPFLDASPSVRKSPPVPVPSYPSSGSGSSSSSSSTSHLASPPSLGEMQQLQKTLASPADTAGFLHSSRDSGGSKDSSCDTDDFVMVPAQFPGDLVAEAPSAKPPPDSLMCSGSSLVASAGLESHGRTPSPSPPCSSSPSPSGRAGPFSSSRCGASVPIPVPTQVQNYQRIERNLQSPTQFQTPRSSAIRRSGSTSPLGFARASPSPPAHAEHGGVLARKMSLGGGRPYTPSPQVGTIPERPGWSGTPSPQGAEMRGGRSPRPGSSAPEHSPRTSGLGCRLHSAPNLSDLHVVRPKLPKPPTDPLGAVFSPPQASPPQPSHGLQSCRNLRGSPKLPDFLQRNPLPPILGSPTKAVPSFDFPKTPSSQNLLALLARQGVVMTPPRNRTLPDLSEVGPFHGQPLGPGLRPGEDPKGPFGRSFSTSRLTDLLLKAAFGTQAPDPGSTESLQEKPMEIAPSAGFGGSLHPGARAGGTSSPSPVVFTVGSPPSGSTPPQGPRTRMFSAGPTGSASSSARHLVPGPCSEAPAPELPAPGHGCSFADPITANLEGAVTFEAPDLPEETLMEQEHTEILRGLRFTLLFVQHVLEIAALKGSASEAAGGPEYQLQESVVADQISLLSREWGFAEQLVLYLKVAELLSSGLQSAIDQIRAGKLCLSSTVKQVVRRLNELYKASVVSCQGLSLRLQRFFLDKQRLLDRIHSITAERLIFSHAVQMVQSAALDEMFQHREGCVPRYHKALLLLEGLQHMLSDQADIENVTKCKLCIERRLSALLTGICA

[3] = target: 5'-AMP-activated protein kinase catalytic subunit alpha-1 (Homo sapiens, UniProt Q13131)
Chain of 5'-AMP-activated protein kinase catalytic subunit alpha-1 (Q13131 whole entry): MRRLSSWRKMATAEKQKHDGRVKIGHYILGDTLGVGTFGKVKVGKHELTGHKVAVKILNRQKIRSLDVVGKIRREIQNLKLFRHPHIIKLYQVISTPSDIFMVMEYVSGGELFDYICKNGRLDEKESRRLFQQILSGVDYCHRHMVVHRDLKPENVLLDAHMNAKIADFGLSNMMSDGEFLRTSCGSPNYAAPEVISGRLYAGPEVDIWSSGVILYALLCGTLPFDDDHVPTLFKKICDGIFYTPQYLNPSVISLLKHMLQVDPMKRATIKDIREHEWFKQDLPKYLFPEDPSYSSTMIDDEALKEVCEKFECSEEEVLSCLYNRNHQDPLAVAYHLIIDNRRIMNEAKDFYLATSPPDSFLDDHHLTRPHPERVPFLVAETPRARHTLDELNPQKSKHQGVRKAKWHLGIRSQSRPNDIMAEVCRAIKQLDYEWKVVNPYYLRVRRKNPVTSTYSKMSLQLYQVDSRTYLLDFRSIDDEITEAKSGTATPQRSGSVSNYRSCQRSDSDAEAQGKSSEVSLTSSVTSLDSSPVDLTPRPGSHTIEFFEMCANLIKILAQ

[4] = target: T3, DNA replication licensing factor MCM4 (Homo sapiens, UniProt P33991)
T3 sequence (P33991 whole entry): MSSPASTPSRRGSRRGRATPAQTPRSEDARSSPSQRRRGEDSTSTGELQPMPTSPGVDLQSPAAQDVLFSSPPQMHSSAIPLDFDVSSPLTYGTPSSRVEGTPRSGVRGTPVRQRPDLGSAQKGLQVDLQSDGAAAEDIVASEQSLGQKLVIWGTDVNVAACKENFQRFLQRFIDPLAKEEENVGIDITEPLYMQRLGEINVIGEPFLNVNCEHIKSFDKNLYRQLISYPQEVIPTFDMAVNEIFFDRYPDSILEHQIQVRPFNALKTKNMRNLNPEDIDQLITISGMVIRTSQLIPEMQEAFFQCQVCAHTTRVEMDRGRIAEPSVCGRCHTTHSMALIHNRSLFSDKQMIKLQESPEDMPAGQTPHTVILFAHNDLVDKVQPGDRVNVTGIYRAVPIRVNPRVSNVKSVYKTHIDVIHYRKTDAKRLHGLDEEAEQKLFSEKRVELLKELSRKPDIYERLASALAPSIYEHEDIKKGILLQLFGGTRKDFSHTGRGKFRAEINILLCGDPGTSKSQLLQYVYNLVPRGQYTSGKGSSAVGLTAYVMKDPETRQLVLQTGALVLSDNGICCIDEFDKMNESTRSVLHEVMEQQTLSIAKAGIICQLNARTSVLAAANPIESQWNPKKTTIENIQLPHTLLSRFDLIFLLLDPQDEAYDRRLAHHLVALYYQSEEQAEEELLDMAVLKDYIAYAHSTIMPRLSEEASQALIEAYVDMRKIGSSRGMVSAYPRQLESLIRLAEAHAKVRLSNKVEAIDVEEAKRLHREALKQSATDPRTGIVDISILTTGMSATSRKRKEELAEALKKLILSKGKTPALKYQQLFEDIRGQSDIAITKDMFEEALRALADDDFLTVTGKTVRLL

[5] = target: Macrophage-stimulating protein receptor (Homo sapiens, UniProt Q04912)
Chain of Macrophage-stimulating protein receptor (Q04912 25-304 limits assumed): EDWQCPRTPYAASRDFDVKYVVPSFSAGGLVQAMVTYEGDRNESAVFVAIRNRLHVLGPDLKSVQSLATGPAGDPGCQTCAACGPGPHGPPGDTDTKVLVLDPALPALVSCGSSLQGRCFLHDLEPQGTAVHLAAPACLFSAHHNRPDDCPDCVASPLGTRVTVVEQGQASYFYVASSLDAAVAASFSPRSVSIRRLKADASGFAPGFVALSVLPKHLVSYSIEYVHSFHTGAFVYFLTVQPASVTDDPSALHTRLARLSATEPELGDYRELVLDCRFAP
Chain of Macrophage-stimulating protein receptor (Q04912 310-1400 limits assumed): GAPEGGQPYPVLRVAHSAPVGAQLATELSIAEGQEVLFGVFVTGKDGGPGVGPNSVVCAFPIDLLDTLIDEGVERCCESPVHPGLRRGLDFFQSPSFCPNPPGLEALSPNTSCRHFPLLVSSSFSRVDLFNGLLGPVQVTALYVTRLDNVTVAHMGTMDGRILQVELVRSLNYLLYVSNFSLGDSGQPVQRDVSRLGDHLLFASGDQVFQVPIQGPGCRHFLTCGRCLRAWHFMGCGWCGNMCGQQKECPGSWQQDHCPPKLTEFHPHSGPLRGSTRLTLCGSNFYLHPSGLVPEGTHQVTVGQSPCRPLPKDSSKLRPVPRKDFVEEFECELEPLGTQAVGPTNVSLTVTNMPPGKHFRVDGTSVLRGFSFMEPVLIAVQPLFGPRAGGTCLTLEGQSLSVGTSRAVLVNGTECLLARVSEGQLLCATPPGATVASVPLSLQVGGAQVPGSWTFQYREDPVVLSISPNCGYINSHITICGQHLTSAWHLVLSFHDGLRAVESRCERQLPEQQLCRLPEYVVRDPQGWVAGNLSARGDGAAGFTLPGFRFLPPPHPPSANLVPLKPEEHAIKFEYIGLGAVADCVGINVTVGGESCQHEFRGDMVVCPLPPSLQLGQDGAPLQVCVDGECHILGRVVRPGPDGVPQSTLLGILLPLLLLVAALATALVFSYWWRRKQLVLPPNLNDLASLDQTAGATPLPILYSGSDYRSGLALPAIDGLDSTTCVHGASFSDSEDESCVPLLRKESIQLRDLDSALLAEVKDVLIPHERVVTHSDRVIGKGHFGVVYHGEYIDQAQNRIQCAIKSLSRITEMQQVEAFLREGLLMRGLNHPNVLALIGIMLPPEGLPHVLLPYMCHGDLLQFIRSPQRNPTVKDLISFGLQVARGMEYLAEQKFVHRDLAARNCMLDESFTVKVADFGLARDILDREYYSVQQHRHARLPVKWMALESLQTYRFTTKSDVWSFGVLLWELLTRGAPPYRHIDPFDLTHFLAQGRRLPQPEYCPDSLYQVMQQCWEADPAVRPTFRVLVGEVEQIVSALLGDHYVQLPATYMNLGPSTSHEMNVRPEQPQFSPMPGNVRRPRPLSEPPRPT
Note: in the data inactive means no Kd found up to 30 µM.

Row | Structure (SMILES) | Kd [1] | Kd [2] | Kd [3] | Kd [4] | Kd [5]
1 | Cn1c(=O)c(F)c(Nc2ccc(I)cc2F)c2c(=O)n(C[C@@H](O)CO)cnc21 [TAK-733] | > 30 µM (inactive) | > 30 µM (inactive) | > 30 µM (inactive) | > 30 µM (inactive) | > 30 µM (inactive)
2 | COc1cc2ncnc3c2cc1OCCCCCN(C)Cc1ccc(Br)cc1N3 [JNJ-26483327] | > 30 µM (inactive) | > 30 µM (inactive) | > 30 µM (inactive) | > 30 µM (inactive) | > 30 µM (inactive)
3 | COc1cc2ncnc(Nc3ccc(F)c(Cl)c3)c2cc1NC(=O)/C=C/CN1CCCCC1 [DACOMITINIB ANHYDROUS] | > 30 µM (inactive) | > 30 µM (inactive) | > 30 µM (inactive) | > 30 µM (inactive) | > 30 µM (inactive)
4 | C#Cc1cccc(Nc2ncnc3cc4c(cc23)OCCOCCOCCO4)c1 [ICOTINIB] | > 30 µM (inactive) | > 30 µM (inactive) | > 30 µM (inactive) | > 30 µM (inactive) | > 30 µM (inactive)
5 | Cc1cc(C(=O)Nc2cc(Oc3ccc4nc(NC(=O)C5CC5)cn4n3)ccc2C)n(C)n1 [TAK-593] | > 30 µM (inactive) | > 30 µM (inactive) | > 30 µM (inactive) | > 30 µM (inactive) | > 30 µM (inactive)
6 | C[C@]1(O)C[C@@H](c2nc(-c3ccc4ccc(-c5ccccc5)nc4c3)c3c(N)nccn32)C1 [LINSITINIB] | > 30 µM (inactive) | > 30 µM (inactive) | – | > 30 µM (inactive) | –
7 | COc1cc2ncnc(Nc3ccc(O)cc3)c2cc1OC [WHI-P131] | > 30 µM (inactive) | > 30 µM (inactive) | > 30 µM (inactive) | > 30 µM (inactive) | > 30 µM (inactive)
8 | O=C(O)c1ccc2c(c1)nc(Nc1cccc(Cl)c1)c1ccncc12 [SILMITASERTIB] | > 30 µM (inactive) | 3.66 µM (active) | 15.4 µM (active) | > 30 µM (inactive) | > 30 µM (inactive)
9 | CN(c1ncccc1CNc1nc(Nc2ccc3c(c2)CC(=O)N3)ncc1C(F)(F)F)S(C)(=O)=O [PF-00562271] | > 30 µM (inactive) | > 30 µM (inactive) | – | > 30 µM (inactive) | –
10 | O[C@H]1CC[C@H](Nc2ncc3nc(Nc4c(F)cc(F)cc4F)n([C@H]4CCOC4)c3n2)CC1 [TANZISERTIB] | > 30 µM (inactive) | > 30 µM (inactive) | > 30 µM (inactive) | > 30 µM (inactive) | > 30 µM (inactive)
11 | Cn1c(=O)n(-c2ccc(C(C)(C)C#N)cc2)c2c3cc(-c4cnc5ccccc5c4)ccc3ncc21 [DACTOLISIB] | > 30 µM (inactive) | > 30 µM (inactive) | – | > 30 µM (inactive) | –
12 | S=C(NCc1ccc2c(c1)OCO2)N1CCN(c2ncnc3c2oc2ccccc23)CC1 [AMUVATINIB] | > 30 µM (inactive) | > 30 µM (inactive) | > 30 µM (inactive) | > 30 µM (inactive) | > 30 µM (inactive)
13 | CN1CCN(c2nc(C3=C(c4c[nH]c5ccccc45)C(=O)NC3=O)c3ccccc3n2)CC1 [SOTRASTAURIN] | > 30 µM (inactive) | > 30 µM (inactive) | > 30 µM (inactive) | > 30 µM (inactive) | > 30 µM (inactive)
14 | CCOc1ccn(-c2ccc(F)cc2)c(=O)c1C(=O)Nc1ccc(Oc2ccnc(N)c2Cl)c(F)c1 [BMS-777607] | > 30 µM (inactive) | > 30 µM (inactive) | – | > 30 µM (inactive) | > 30 µM (inactive)
15 | CC1(COc2ccc3c(c2)ncn3-c2ccc3cccc(N4CCC(N)CC4)c3n2)COC1 [CRENOLANIB] | – | 0.839 µM (active) | 1.25 µM (active) | > 30 µM (inactive) | > 30 µM (inactive)
16 | Cn1cnc2c(F)c(Nc3ccc(Br)cc3Cl)c(C(=O)NOCCO)cc21 [SELUMETINIB] | > 30 µM (inactive) | – | – | > 30 µM (inactive) | –
17 | O=S(=O)(c1cccc2cnccc12)N1CCCNCC1 [FASUDIL] | 2.45 µM (active) | – | – | > 30 µM (inactive) | –
18 | CNC(=O)c1cc(COc2nnc(Nc3ccc(Cl)cc3)c3ccoc23)ccn1 [TELATINIB] | > 30 µM (inactive) | > 30 µM (inactive) | > 30 µM (inactive) | > 30 µM (inactive) | > 30 µM (inactive)
19 | COc1cc2c(N3CCN(C(=O)Nc4ccc(OC(C)C)cc4)CC3)ncnc2cc1OCCCN1CCCCC1 [TANDUTINIB] | > 30 µM (inactive) | – | – | > 30 µM (inactive) | –
20 | COc1cc(F)c(F)c(Nc2ccc(I)cc2F)c1NS(=O)(=O)C1(C[C@H](O)CO)CC1 [REFAMETINIB] | > 30 µM (inactive) | > 30 µM (inactive) | > 30 µM (inactive) | > 30 µM (inactive) | > 30 µM (inactive)
21 | COc1cc2c(Oc3ccc4[nH]c(C)cc4c3F)ncnc2cc1OCCCN1CCCC1 [CEDIRANIB] | > 30 µM (inactive) | – | – | > 30 µM (inactive) | –
22 | CC(C)(O)CC(=O)NCCn1ccc2ncnc(Nc3ccc(Oc4cccc(C(F)(F)F)c4)c(Cl)c3)c21 [TAK-285] | > 30 µM (inactive) | – | > 30 µM (inactive) | > 30 µM (inactive) | > 30 µM (inactive)
23 | C=CCn1c(=O)c2cnc(Nc3ccc(N4CCN(C)CC4)cc3)nc2n1-c1cccc(C(C)(C)O)n1 [ADAVOSERTIB] | > 30 µM (inactive) | > 30 µM (inactive) | – | > 30 µM (inactive) | –
24 | CC1(C)CNc2cc(NC(=O)c3cccnc3NCc3ccncc3)ccc21 [MOTESANIB] | > 30 µM (inactive) | – | – | > 30 µM (inactive) | –
25 | CN(C)C/C=C/C(=O)Nc1cc2c(Nc3ccc(F)c(Cl)c3)ncnc2cc1O[C@H]1CCOC1 [AFATINIB] | > 30 µM (inactive) | – | – | > 30 µM (inactive) | –
26 | C[C@@]1(C(=O)Nc2ccc(F)nc2)CCCN1c1nc(Nc2cc(C3CC3)n[nH]2)c2cccn2n1 [BMS-754807] | > 30 µM (inactive) | – | – | > 30 µM (inactive) | –
27 | NC[C@@](O)(c1ccc(Cl)cc1)c1ccc(-c2cn[nH]c2)cc1 [AT-13148] | > 30 µM (inactive) | – | > 30 µM (inactive) | > 30 µM (inactive) | > 30 µM (inactive)
28 | C=CCN(/C=C1/C(=O)O[C@H](COC)[C@@]2(C)C1=C(O)C(=O)C1=C2[C@H](OC(C)=O)C[C@]2(C)C(=O)CC[C@@H]12)CC=C [SONOLISIB] | > 30 µM (inactive) | > 30 µM (inactive) | > 30 µM (inactive) | – | > 30 µM (inactive)
29 | COc1cc2nccc(Oc3ccc(NC(=O)C4(C(=O)Nc5ccc(F)cc5)CC4)cc3)c2cc1OC [CABOZANTINIB] | > 30 µM (inactive) | > 30 µM (inactive) | > 30 µM (inactive) | > 30 µM (inactive) | –
30 | CCN(CCCOc1ccc2c(Nc3cc(CC(=O)Nc4cccc(F)c4)n[nH]3)ncnc2c1)CCOP(=O)(O)O [BARASERTIB] | > 30 µM (inactive) | > 30 µM (inactive) | – | > 30 µM (inactive) | –
